{"source": "patent US10555987B2", "about": "“GHRH agonists for the treatment of ischemic disorders” (UNIVERSITY OF MIAMI, priority 2012, dated 2020)", "system": "GH release", "assay": "GH releasing potency in vivo, intravenous administration (Example 14, Table 13)", "design": "species or system rat", "conditions": "i.v.", "description": "Male Sprague-Dawley rats, weighing 200-250 g, were purchased from Charles River Laboratory (Wilmington, Mass.) and used for experiments. All animal procedures were approved by the Veterans Affairs Animal Care and Use Committee and were conducted in accordance with additional institutional guidelines as well. Briefly, groups of 5-6 animals were used in each experiment. The rats were anesthetized with 50 mg/kg of sodium pentobarbital (Nembutal, Lundbeck Inc., Deerfield, Ill.). Twenty min after inducing anesthesia, GHRH(1-29)NH2, JI-38, or new analogs were injected into the animals intravenously (i.v.) or subcutaneously (s.c.). The peptides were dissolved in 0.01 M acetic acid to get 1 μg/μl stock solution, and then diluted with 5% mannitol. Control rats received 5% mannitol only. Blood samples were collected from the jugular vein at selected times and were used for serum preparation. Concentrations of GH in rat sera were determined by ELISA. The relative potencies of tested peptides were calculated using GHRH(1-29)NH2 and JI-38 for comparison, whose potency was defined as 1. The equivalent dosage of GHRH(1-29)NH2 to reach the same level of serum growth hormone release after injection of the specific tested peptide was determined from a GHRH(1-29)NH2 standard curve using Origin 6.0 software. […] Serum GH was determined using the rat Growth Hormone ELISA kit (ALPCO Diagnostics, Mill Valley, Calif.) according to the manufacturer's instruction. Absorbance at 405 nm was measured by a Victor 3 Multi-label Counter (Perkin-Elmer, Waltham, Md.).", "note": "Non-standard residues stand in square brackets, D forms with d. Residues, ends and D or L forms follow the SMILES beside them. NMeY = CN[C@@H](Cc1ccc(O)cc1)C(=O)O; Nle = CCCC[C@H](N)C(=O)O; Orn = NCCC[C@H](N)C(=O)O; Abu = CC[C@H](N)C(=O)O", "data": [{"smiles": "CCCC[C@H](NC(=O)[C@@H](NC(=O)[C@H](CC(=O)O)NC(=O)[C@H](CCC(N)=O)NC(=O)[C@H](CC(C)C)NC(=O)[C@H](CC(C)C)NC(=O)[C@H](CCCN)NC(=O)[C@H](CCCNC(=N)N)NC(=O)[C@H](C)NC(=O)[C@H](CO)NC(=O)[C@H](CC(C)C)NC(=O)[C@H](CCC(N)=O)NC(=O)[C@H](CC)NC(=O)[C@H](CC(C)C)NC(=O)[C@@H](NC(=O)[C@H](CCCN)NC(=O)[C@H](CCCNC(=N)N)NC(=O)[C@H](Cc1ccc(O)cc1)NC(=O)[C@H](CO)NC(=O)[C@H](CCC(N)=O)NC(=O)[C@@H](NC(=O)[C@H](Cc1ccccc1)NC(=O)[C@@H](NC(=O)[C@H](C)NC(=O)[C@H](CC(=O)O)NC(=O)[C@@H](C)NC(=O)[C@H](Cc1ccc(O)cc1)NC)[C@@H](C)CC)[C@@H](C)O)C(C)C)[C@@H](C)CC)C(=O)N[C@@H](CC(=O)O)C(=O)N[C@@H](CCCNC(=N)N)C(=O)NC", "note": "[Peptide P-27403, [N—Me-Tyr^1, D-Ala^2, Gln^8, Orn^12, Abu^15, Orn^21, Nle^27, Asp^28]hGHRH(1-29)NH—CH3] (H-[NMeY][dA]DAIFTQSYR[Orn]VL[Abu]QLSAR[Orn]LLQDI[Nle]DR-NHMe)", "values": [{"measurement": "Relative potency, 5 min", "setting": "5 min, JI-38 = 1", "value": 1.19}, {"measurement": "Relative potency, 15 min", "setting": "15 min, JI-38 = 1", "value": 1.35}, {"measurement": "Serum GH level at selected time after injection (ng/ml), 0 min", "setting": "dose 1 μg/kg, 0 min, mean ± SEM", "value": "47.7 ± 4.1", "unit": "ng/mL"}, {"measurement": "Serum GH level at selected time after injection (ng/ml), 5 min", "setting": "dose 1 μg/kg, 5 min, mean ± SEM", "value": "642 ± 29.7", "unit": "ng/mL"}, {"measurement": "Serum GH level at selected time after injection (ng/ml), 15 min", "setting": "dose 1 μg/kg, 15 min, mean ± SEM", "value": "268 ± 21.1", "unit": "ng/mL"}]}]}
